Assay results from ChEMBL document CHEMBL6096669, “Design and synthesis of novel derivatives of bisepoxylignans as potent anti-inflammatory agents involves the modulation of the M1/M2 microglia phenotype via TLR4/NF-κB signaling pathway” (Eur J Med Chem, 2025).
The source made the active and inactive calls. The calls are words filed in the database; no cut-off is given here.

Experiments:
[1] = Cytotoxicity against mouse BV-2 cells assessed as cell viability at 10 uM measured after 24 hrs by MTT assay relative to control; format: toxicity, cell-based; conditions: read-out: Activity
BV-2 [2] = assay: (§1) Inhibition of LPS-induced NO production in mouse BV-2 cells at 10 uM measured after 24 hrs followed by induced with LPS for another 24 hrs by ELISA relative to control; format: functional
[3] = as §1; format: functional
BV-2 [4] = assay: Anti-inflammatory activity against LPS-induced mouse BV-2 cells assessed as decrease in LPS-induced Cyclooxygenase-2 mRNA expression at 20 uM incubated for 4 hrs followed by LPS induced for 12 hrs by RT-PCR analysis relative to control; format: functional, cell-based; conditions: time 16.0 hrs
[5] = Permeability of compound in PBS/EtOH (70:30) buffer incubated for 18 hrs by PAMPA-BBB assay

log Pe [5] | SMILES | viability at 24 h, 10 µM [1] | inhibition (BV-2 [2]) | inhibition at 10 µM [3] | Activity (BV-2 [4])
– | Cn1ncc2cc(Nc3ncnc4c3ccn4Cc3ccc(F)cc3Cl)ccc21 | 79.2% | inactive | – | –
– | O=c1[nH]c2ccc(Nc3ncnc4c3ccn4Cc3cccc(F)c3Cl)cc2[nH]1 | 42.2% | inactive | – | –
– | O=c1[nH]c2ccc(Nc3ncnc4c3cnn4Cc3cc(F)cc(Cl)c3)cc2[nH]1 | 92.9% | – | 61.7% | –
– | O=c1[nH]c2ccc(Nc3ncnc4c3ccn4Cc3cccc4ccccc34)cc2[nH]1 | 59.7% | inactive | – | –
– | Fc1ccc(Cn2ccc3c(Nc4ccc5cn[nH]c5c4)ncnc32)c(Cl)c1 | 76.2% | inactive | – | –
– | O=c1[nH]c2ccc(Nc3ncnc4c3ccn4Cc3cccc4cccnc34)cc2[nH]1 | 84.7% | – | 43.8% | –
– | COc1cc(Cn2ccc3c(Nc4ccc5[nH]c(=O)[nH]c5c4)ncnc32)cc(OC)c1 | 107% | – | 42.5% | –
– | COc1ccc2c3c1O[C@H]1C[C@@H](O)C=C[C@@]31CCNC2 | 91.2% | – | 55.7% | Active
– | O=c1[nH]c2ccc(Nc3ncnc4c3ccn4Cc3cc(F)cc(Cl)c3)cc2[nH]1 | 104% | – | 45.7% | –
– | O=c1[nH]c2ccc(Nc3ncnc4c3ccn4Cc3ccc(F)cc3Cl)cc2o1 | 85.7% | – | 54.3% | –
– | COc1cc(Cn2ccc3c(Nc4ccc5c(c4)CC(=O)N5)ncnc32)cc(OC)c1 | 53% | inactive | – | –
– | Cc1cccc(Cn2ccc3c(Nc4ccc5[nH]c(=O)[nH]c5c4)ncnc32)c1 | 59% | inactive | – | –
– | O=c1[nH]c2ccc(Nc3ncnc4c3ccn4Cc3c(Cl)cccc3Cl)cc2[nH]1 | 57.6% | inactive | – | –
– | O=C(Cn1ccc2c(Nc3ccc4[nH]c(=O)[nH]c4c3)ncnc21)N1CCOCC1 | 102% | – | 54.3% | –
– | O=c1[nH]c2ccc(Nc3ncnc4c3ccn4Cc3ccccc3)cc2[nH]1 | 99.7% | – | 76.6% | –
– | O=c1[nH]c2ccc(Nc3ncnc4c3ccn4Cc3cccc(Cl)c3F)cc2[nH]1 | 73% | inactive | – | –
– | O=c1[nH]c2ccc(Nc3ncnc4c3cnn4Cc3cc(Cl)cc(Cl)c3)cc2[nH]1 | 52.2% | inactive | – | –
– | COc1cc(Cn2ccc3c(Nc4ccc5scnc5c4)ncnc32)cc(OC)c1 | 84.5% | inactive | – | –
– | COc1cc([C@H]2OC[C@H]3[C@@H]2CO[C@@H]3c2cc(OC)c(O)c(OC)c2)cc(OC)c1O [SYRINGARESINOL] | 91% | – | 75.6% | –
– | O=c1[nH]c2ccc(Nc3ncnc4c3ccn4Cc3ccc(F)c(Cl)c3)cc2[nH]1 | 57.3% | inactive | – | –
-6.24 | CCn1cc(C(=O)O)c(=O)c2cc(F)c(N3CCNCC3)nc21 [ENOXACIN] | – | – | – | –
– | Fc1ccc(Cn2ccc3c(Nc4ccc5c(c4)OCO5)ncnc32)c(Cl)c1 | 96.9% | – | 46.8% | –
– | O=c1[nH]c2ccc(Nc3ncnc4c3ccn4Cc3ccc(Cl)c(F)c3)cc2[nH]1 | 83.1% | – | 103% | –
– | O=c1[nH]c2ccc(Nc3ncnc4c3cnn4Cc3ccc(Cl)cc3F)cc2[nH]1 | 57.8% | inactive | – | –
– | COc1cc(Cn2ccc3c(Nc4ccc5c(cnn5C)c4)ncnc32)cc(OC)c1 | 62.5% | – | 63.8% | –

log Pe [5] | SMILES | viability at 24 h, 10 µM [1] | inhibition (BV-2 [2]) | inhibition at 10 µM [3] | Activity (BV-2 [4])
– | O=c1[nH]c2ccc(Nc3ncnc4c3cnn4Cc3cccc(Cl)c3F)cc2[nH]1 | 53.3% | inactive | – | –
– | COc1cccc(Cn2ccc3c(Nc4ccc5[nH]c(=O)[nH]c5c4)ncnc32)c1 | 88.5% | – | 63.8% | –
– | O=c1[nH]c2ccc(Nc3ncnc4c3ccn4Cc3ccc(F)cc3Cl)cc2[nH]1 | 84.5% | – | 78.5% | –
– | Cc1ccc(Cn2ccc3c(Nc4ccc5[nH]c(=O)[nH]c5c4)ncnc32)cc1 | 77.2% | inactive | – | –
– | O=C1Cc2cc(Nc3ncnc4c3ccn4Cc3ccc(F)cc3Cl)ccc2N1 | 56.6% | inactive | – | –
– | O=c1[nH]c2ccc(Nc3ncnc4c3ccn4Cc3ccc(I)cc3)cc2[nH]1 | 98.7% | – | 74.5% | –
– | O=c1[nH]c2ccc(Nc3ncnc4c3ccn4Cc3ccc(Cl)cc3F)cc2[nH]1 | 72.1% | inactive | – | –
– | O=c1[nH]c2ccc(Nc3ncnc4c3ccn4Cc3ccc(F)cc3F)cc2[nH]1 | 98.2% | – | 54.3% | –
– | O=C(Cn1ccc2c(Nc3ccc4[nH]c(=O)[nH]c4c3)ncnc21)c1ccccc1 | 74.3% | inactive | – | –
– | COc1ccc(Cn2ccc3c(Nc4ccc5[nH]c(=O)[nH]c5c4)ncnc32)cc1 | 115% | – | 76.6% | –
– | O=c1[nH]c2ccc(Nc3ncnc4c3ccn4Cc3cc(Cl)ccc3F)cc2[nH]1 | 70.3% | inactive | – | –
– | COc1ccc(Cn2ccc3c(Nc4ccc5[nH]c(=O)[nH]c5c4)ncnc32)cc1OC | 75.2% | inactive | – | –
– | COc1cc(Cn2ccc3c(Nc4ccc5[nH]c(=O)oc5c4)ncnc32)cc(OC)c1 | 59.3% | inactive | – | –
– | O=c1[nH]c2ccc(Nc3ncnc4c3ccn4Cc3c(F)cccc3Cl)cc2[nH]1 | 77.2% | inactive | – | –
– | Fc1ccc(Cn2ccc3c(Nc4ccc5scnc5c4)ncnc32)c(Cl)c1 | 61.7% | inactive | – | –
– | COc1cc(Cn2ccc3c(Nc4ccc5c(c4)OCO5)ncnc32)cc(OC)c1 | 93.2% | – | 70.2% | –
– | O=c1[nH]c2ccc(Nc3ncnc4c3ccn4Cc3ccc(Cl)cc3)cc2[nH]1 | 91.7% | – | 71.3% | –
– | O=c1[nH]c2ccc(Nc3ncnc4c3ccn4Cc3ccc4c(c3)OCO4)cc2[nH]1 | 89.3% | – | 56.3% | –
– | COc1cc(Cn2ccc3c(Nc4ccc5cn[nH]c5c4)ncnc32)cc(OC)c1 | 118% | – | 77.7% | –
– | O=c1[nH]c2ccc(Nc3ncnc4c3cnn4Cc3cccc(F)c3Cl)cc2[nH]1 | 83.2% | – | 96.2% | –
-6.06 | CC1(C)S[C@@H]2[C@H](NC(=O)Cc3ccccc3)C(=O)N2[C@H]1C(=O)[O-].[Na+] [PENICILLIN G SODIUM] | – | – | – | –
– | Cc1ccccc1Cn1ccc2c(Nc3ccc4[nH]c(=O)[nH]c4c3)ncnc21 | 81.8% | – | 63.5% | –
– | O=c1[nH]c2ccc(Nc3ncnc4c3ccn4Cc3cc(F)ccc3F)cc2[nH]1 | 50.7% | inactive | – | –
– | O=c1[nH]c2ccc(Nc3ncnc4c3ccn4Cc3cc(C(F)(F)F)cc(C(F)(F)F)c3)cc2[nH]1 | 58.5% | inactive | – | –
